In patent publication US20050158805A1, “Toxicity test” (priority 2002, published 2005):

How the values were obtained:
HepG2 spheroids = test: Spheroid cell spreading inhibition test (SCSIT) using fresh HepG2 spheroids; format: cell-based, Human; conditions: for SCSIT result (spheroid cell spreading inhibition): fresh HepG2 spheroids, batches A-C; for concentrations at which HepG2 spheroid cell spreading is inhibited: HepG2 spheroids, read from tables
Procedure: (§1) The inventors have developed a cell spreading inhibition test based on the observed spheroid cell growth, or “spreading” of cells in spheroids when the spheroids are grown on a suitable surface and at static state i.e. without shaking. […] This inhibition of cell spreading provides an indicator of toxicity.
(§2) According to a first aspect of the invention, there is provided an in vitro toxicity assay comprising: • a) exposing a spheroid sample to a selected concentration of a compound to be assayed; • b) incubating the spheroid sample for a suitable period of time; and • c) observing if spheroid cell spreading inhibition takes place. […] However, if there is observable cell spreading from one or more of the spheroids in the sample, this is a cell spreading inhibition negative (−) result.
(§3) In the following examples, fresh liver or HepG2 spheroids were used.
HepG2 cell line (Human Hepatocyte Carinomal cells, from ECACC) was cultured as a monolayer in a 75 cm^2 flask at an initial density of 10^2 cells/cm^2 in a culture medium containing MEM (Sigma) supplemented with 10% FBS, 200 nM L-Glutamine, 100 U/ml pencillin and 100 μg/ml streptomycin (GibcoBril). HepG2 cells of confluent flasks were detached by trypsin and pooled together to be counted by trypan blue dye excretion. The cell suspension was diluted with culture medium (MEM supplemented with 5% FBS, […] L-glutamine, 100 U/ml penicillin and 100 μg/ml streptomycin) to give 1×10^6 cell/ml cell suspension. The cell suspension was plated into 6-well plates, 3 ml/well. The plate was placed on a gyrotatory shaker (New Brunswick) at 83 rpm in a 37° C. CO2 incubator for the first 24 h, and then the rotation speed reduced to 77 rpm. After 6 DIV culture, spheroids were ready for use.
(§4) 3 to 5 freshly prepared spheroids were transferred into each well of a 24 well plate and exposed to galactosamine at various concentrations as detailed in Tables 1 and 2. Two wells were used for each concentration of galactosamine. The spheroids were incubated in Hepatocyte medium (Sigma) supplemented with 10-15% FCS, […] L-glutamine, 100 U/ml penicillin and 100 μg/ml streptomycim sulfate, and placed in a 5% CO2 incubator at 37° C. and the effects on spheroid cell spreading inhibition observed after 48 hours exposure of the cells to galactosamine: […]

liver spheroids = test: Spheroid cell spreading inhibition test (SCSIT) using fresh liver spheroids; format: cell-based, male Wistar rats; conditions: for SCSIT result (spheroid cell spreading inhibition): fresh liver spheroids, batches A-C; for concentrations at which liver spheroid cell spreading is inhibited: liver spheroids, read from tables
Procedure: as §1, §2, §3
Liver spheroids were prepared from the liver of male Wistar rats by a two-step collagenase perfusion method described by Seglen P.O. ((1976). Preparation of isolated rat liver cells. Methods Cell. Biol. 13, 29-38) and modified by Lazar, A.; Peshwa, M. V., Wu, F. J., Chi, C. M., Cerra, F. B., and Hu, W. S. (1995). Extended liver-specific functions of procine hepatocyte spheroids entrapped in collagen gel. In Vitro Cell Biol Anim. 31, 340-346). Viability of the isolated liver cells was determined by tyrpan blue dye exclusion i.e. an aliquot of isolated liver cells was mixed with an equal volume of trypan blue dye (1.0% w/v in isotonic saline) and incubated at room temperature for a minimum period of 5 minutes. Only isolated liver cell preparations with viability above 80% were used to prepare liver spheroids. The cell suspension was diluted with culture medium (hepatocyte medium supplemented with 5% FCS, […] L-glutamine, 2 ng/ml insulin, 100 U/ml penicillin and 100 μg/ml streptomycin sulfate) to give a cell density of 5×10^5 cells/ml. The diluted cell suspension was dispersed into 6-well plates, 3 ml/well. The plates were incubated at 37° C., in a 5% CO2 incubator on a gyrotatory shaker (New Brunswick) at an initial rotation speed of 85 rpm for the first 24 hr and 77 rpm thereafter. The plates were rotated at this speed for the duration of the study (up to 45 days, but typically 2-10 days). 1.5 ml of old medium was replaced with 2.0 ml fresh medium for each well every other day. Media exchange was carried out over the duration of the study (up to 45 days, but typically 2-10 days).
as §4

In the case of `O=C(O)Cc1ccccc1Nc1c(Cl)cccc1Cl` [diclofenac], the “SCSIT result (spheroid cell spreading inhibition)” value (HepG2 spheroids; 0.1 μM) is reported as “−”, the “SCSIT result (spheroid cell spreading inhibition)” value (HepG2 spheroids; 1 μM) is reported as “−” and the “SCSIT result (spheroid cell spreading inhibition)” value (HepG2 spheroids; 10 μM) is reported as “−”. For the same compound, the “SCSIT result (spheroid cell spreading inhibition)” value (HepG2 spheroids; 100 μM) was “−”, the “SCSIT result (spheroid cell spreading inhibition)” value (HepG2 spheroids; 1000 μM) was “+” and the “concentrations at which HepG2 spheroid cell spreading is inhibited” value (HepG2 spheroids) was no less than 1000 µM. The “SCSIT result (spheroid cell spreading inhibition)” value (liver spheroids; 0.1 μM) was “−”, the “SCSIT result (spheroid cell spreading inhibition)” value (liver spheroids; 1 μM) was “−” and the “SCSIT result (spheroid cell spreading inhibition)” value (liver spheroids; 10 μM) was “−”. For the same compound, the “SCSIT result (spheroid cell spreading inhibition)” value (liver spheroids; 100 μM) was “−”, the “SCSIT result (spheroid cell spreading inhibition)” value (liver spheroids; 1000 μM) was “+” and the “spheroid cell spreading inhibition (FIG. 4A)” value (liver spheroids; liver spheroid, 100 μM, 48 hours after exposure) was “no spheroid cell spreading inhibition is observed”. For the same compound, the “spheroid cell spreading inhibition (FIG. 4B)” value (liver spheroids; liver spheroid, 1000 μM, 48 hours after exposure) was “spheroid cell spreading was inhibited” and the “concentrations at which liver spheroid cell spreading is inhibited” value (liver spheroids) was no less than 1000 µM.
In the case of `N[C@H]1C(O)O[C@H](CO)[C@H](O)[C@@H]1O` (stereo partly drawn) [galactosamine], the “SCSIT result (spheroid cell spreading inhibition)” value (HepG2 spheroids; 4 mM, 48 hours exposure) is reported as “−”, the “SCSIT result (spheroid cell spreading inhibition)” value (HepG2 spheroids; 10 mM, 48 hours exposure) is reported as “−” and the “SCSIT result (spheroid cell spreading inhibition)” value (HepG2 spheroids; 16 mM, 48 hours exposure) is reported as “+”. For the same compound, the “SCSIT result (spheroid cell spreading inhibition)” value (HepG2 spheroids; 20 mM, 48 hours exposure) was “+”, the “SCSIT result (spheroid cell spreading inhibition)” value (HepG2 spheroids; 40 mM, 48 hours exposure) was “+” and the “concentrations at which HepG2 spheroid cell spreading is inhibited” value (HepG2 spheroids) was no less than 16000 µM. The “SCSIT result (spheroid cell spreading inhibition)” value (liver spheroids; 4 mM, 48 hours exposure) was “−”, the “SCSIT result (spheroid cell spreading inhibition)” value (liver spheroids; 10 mM, 48 hours exposure) was “−” and the “SCSIT result (spheroid cell spreading inhibition)” value (liver spheroids; 16 mM, 48 hours exposure) was “−”. The “SCSIT result (spheroid cell spreading inhibition)” value (liver spheroids; 20 mM, 48 hours exposure) was “+”, the “SCSIT result (spheroid cell spreading inhibition)” value (liver spheroids; 40 mM, 48 hours exposure) was “+” and the “spheroid cell spreading inhibition (FIG. 2B)” value (liver spheroids; liver spheroid, 16 mM, 48 hours after exposure) was “no spheroid cell spreading inhibition is observed”. For the same compound, the “spheroid cell spreading inhibition (FIG. 2C)” value (liver spheroids; liver spheroid, 40 mM, 48 hours after exposure) was “spheroid cell spreading was inhibited” and the “concentrations at which liver spheroid cell spreading is inhibited” value (liver spheroids) was no less than 20000 µM.
`CC(=O)Nc1ccc(O)cc1` [paracetamol] was tested, and the “SCSIT result (spheroid cell spreading inhibition)” value (HepG2 spheroids; 5 μM) was “−”, the “SCSIT result (spheroid cell spreading inhibition)” value (HepG2 spheroids; 50 μM) was “−” and the “SCSIT result (spheroid cell spreading inhibition)” value (HepG2 spheroids; 500 μM) was “−”. The “SCSIT result (spheroid cell spreading inhibition)” value (HepG2 spheroids; 5 mM) was “−”, the “SCSIT result (spheroid cell spreading inhibition)” value (HepG2 spheroids; 50 mM) was “+” and the “concentrations at which HepG2 spheroid cell spreading is inhibited” value (HepG2 spheroids) was no less than 50000 µM. The “SCSIT result (spheroid cell spreading inhibition)” value (liver spheroids; 5 μM) was “−”, the “SCSIT result (spheroid cell spreading inhibition)” value (liver spheroids; 50 μM) was “−” and the “SCSIT result (spheroid cell spreading inhibition)” value (liver spheroids; 500 μM) was “−”. The “SCSIT result (spheroid cell spreading inhibition)” value (liver spheroids; 5 mM) was “−”, the “SCSIT result (spheroid cell spreading inhibition)” value (liver spheroids; 50 mM) was “+” and the “spheroid cell spreading inhibition (FIG. 5A)” value (liver spheroids; liver spheroid, 5 mM, 48 hours after exposure) was “no spheroid cell spreading inhibition is observed”. For the same compound, the “spheroid cell spreading inhibition (FIG. 5B)” value (liver spheroids; liver spheroid, 50 mM, 48 hours after exposure) was “spheroid cell spreading was inhibited” and the “concentrations at which liver spheroid cell spreading is inhibited” value (liver spheroids) was no less than 50000 µM.
